Measurements published in patent publication US7705016B2, “Regulation of food intake by modulation of long-chain fatty acyl-CoA levels in the hypothalamus” (Albert Einstein College of Medicine of Yeshiva University, priority 2003, dated 2010).

Columns and labels:
CPT1 = target: T1, CPT1 (Rattus norvegicus, UniProt P32198); assay: CPT1 activity in arcuate nuclei and whole hypothalamus after ICV injection; format: in vivo; conditions: after ICV administration
T1 construct: CPT1 activity was measured in the particulate fraction of protein extracts from animals treated with ICV control injections; from tissue; host or cells: hypothalamus (arcuate nucleus) of male Sprague-Dawley rats, in vivo or ex vivo
T1 sequence (P32198 2-773): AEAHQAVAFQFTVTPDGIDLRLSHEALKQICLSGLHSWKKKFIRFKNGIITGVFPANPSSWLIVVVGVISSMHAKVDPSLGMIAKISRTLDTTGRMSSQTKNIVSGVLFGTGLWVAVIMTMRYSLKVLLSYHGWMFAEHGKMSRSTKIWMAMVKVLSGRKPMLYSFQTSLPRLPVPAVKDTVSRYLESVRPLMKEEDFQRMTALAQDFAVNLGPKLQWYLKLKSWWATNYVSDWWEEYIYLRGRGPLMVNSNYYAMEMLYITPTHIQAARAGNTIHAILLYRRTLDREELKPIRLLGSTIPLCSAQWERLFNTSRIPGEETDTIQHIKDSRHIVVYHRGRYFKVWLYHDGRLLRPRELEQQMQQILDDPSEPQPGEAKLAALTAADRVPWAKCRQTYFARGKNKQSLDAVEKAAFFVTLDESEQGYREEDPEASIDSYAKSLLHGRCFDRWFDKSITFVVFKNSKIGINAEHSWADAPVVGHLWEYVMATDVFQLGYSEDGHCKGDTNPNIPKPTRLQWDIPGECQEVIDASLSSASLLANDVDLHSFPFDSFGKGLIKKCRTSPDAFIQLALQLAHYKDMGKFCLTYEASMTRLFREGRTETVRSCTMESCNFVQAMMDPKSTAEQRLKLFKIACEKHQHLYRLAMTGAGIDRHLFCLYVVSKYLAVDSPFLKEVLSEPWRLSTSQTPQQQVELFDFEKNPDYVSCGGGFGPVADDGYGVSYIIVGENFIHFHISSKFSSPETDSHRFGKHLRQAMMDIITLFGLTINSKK
Experimental: Surgical implantation of ICV cannulae was performed on day 1 (˜3 weeks prior to the in vivo study). Full recovery of body weight and food intake was achieved by day 7. Rats randomized for ribozyme treatment received an ICV injection of CPT1L-Ribo, CPT inhibitors or controls on day 17. The experimental group treated with TDGA received ICV injection of the inhibitor on day 21, 6 hr prior to the harvesting of brains. Panels B. and C. show quantitation of CPT1L (B) and CPT1M (C) mRNA by real-time PCR. RNA was purified from individual hypothalamic nuclei (PVN, LHA, and arcuate), which were obtained by micro punch technique 3 days after ICV injection of pTarget control (▪; N=4) or CPT1LRibo (□; N=5). Copy number of CPT1 mRNA is normalized to β-Actin copy number ×10^6. […] CPT1 activity was measured in the particulate fraction of protein extracts from animals treated with ICV control injections (▪; N=6, receiving aCSF+2% DMSO or Control Ribo), TDGA ( ?; N=6), or CPTL-Ribo (□; N=5). […] Levels of stearoyl-CoA (F) and oleyl-CoA (E) respectively were measured by HPLC in arcuate of rats injected ICV with control compound (▪; ST1340) or ST1326 (□).
ICV catheters were implanted in male Sprague-Dawley rats by stereotaxic surgery (Obici et al., 2002a; Obici et al., 2001; Liu et al., 1998). […] Thus, we next measured CPT1 activity in ARC and in whole hypothalamus. […]

Glc-6-Pase mRNA = assay: Hepatic Glc-6-Pase mRNA after ICV OA (northern blot); format: in vivo, rat
Experimental: Northern Blot Analysis. Total RNA was isolated from hypothalami and liver with Trizol (Invitrogen Corp., California, USA). NPY, Glc-6-Pase or PEPCK expression was measured by northern blot analysis. Hypothalamic RNA was analyzed using probes for prepro-NPY and β-actin. To assess the effect of ICV OA on the expression of hepatic enzymes, total RNA was isolated from freeze-clamped liver tissues from rats subjected to insulin clamp studies. Glc-6-Pase and PEPCK cDNA were obtained as previously described (Combs et al., 2001; Massillon et al., 1996; 1998). Probes were labeled with [α-^32P] dCTP using a random primer kit (Stratagene). Quantification was performed by scanning densitometry, normalizing for β-actin signal and 18S ribosomal RNA to correct for loading variabilities. Effect of ICV OA on the hepatic expression of Glc-6-Pase and PEPCK. The potent effects of the central administration of OA on hepatic glucose fluxes prompted us to examine whether changes in the liver mRNA levels of key metabolic enzymes can partly account for these effects. Thus, we next measured the liver abundance of Glc-6-Pase and PEPCK mRNA as a function of 18S ribosomal RNA (FIG. 9d) or β-actin mRNA (not shown) in tissue samples obtained after ICV infusion of either OA or vehicle in caloric restricted and over-fed rats. […]

Row | hepatic Glc-6-Pase mRNA expression (Glc-6-Pase mRNA; HF140 group) | Molecule | CPT1 activity in ARC (CPT1) | suppression of hepatic Glc-6-Pase mRNA expression (Glc-6-Pase mRNA; HF55 group, ICV OA vs ICV vehicle) [%]
1 |  | CPT1L-Ribo: plasmid (pTarget, CMV promoter) expressing a hammerhead ribozyme that specifically cleaves rat CPT1L mRNA, complexed to PEI for ICV injection (DNA CUGUACCAAAGAGCUGUAGAGUCCGUGAGGACGAAACGCCGCUCACAAUG) | marked decrease | 
2 | no changes detected | CCCCCCCC/C=C\CCCCCCCC(=O)O [OA, oleic acid] |  | ~73
